Test results as given in patent publication US20240109900A1, “AZABICYCLIC SHP2 INHIBITORS” (IRBM S.P.A., priority 2021, published 2024).
Read-outs that look alike come from different tables or passages of the source.

What was measured:
[1] = target: SHP-2 enzyme (Met1-Leu525) (Homo sapiens (Human), UniProt Q06124); test: SHP2 inhibition enzymatic assay; assay type: biochemical; settings: read-out: SHP2wt-IC50
How it was run: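 Compounds were preincubated 30 min with 0.5 nM SHP-2 (Met1-Leu525) plus 500 nM IRS1 activating peptide (pH 7.2 HEPES, 5 mM DTT), then 75 μM DiFMUP substrate reacted 30 min at room temperature. After bpV quench, DiFMUP fluorescence gave % inhibition; four-parameter logistic fit yielded IC50.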

[2] = tested on: ERK phosphorylation in KYSE-520 cells; test: Phospho-ERK cellular assay; assay type: cell-based; settings: KYSE-520 cells, 2 h at 37° C., phospho-ERK1/2 (Thr202/Tyr204) TR-FRET, read-out: PERK IC50
How it was run: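 TR-FRET read-out of ERK1/2 Thr202/Tyr204 phosphorylation was taken after overnight antibody incubation at room temperature. Before that, KYSE-520 cells were treated 2 h at 37 °C with compound dilutions and lysed 30 min. Percent inhibition relative to vehicle and cell-free wells was fitted four-parametrically to give IC50.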

[3] = 0.5 nM SHP-2 activated by 500 nM IRS1 peptide, 75 μM DiFMUP substrate

Sequence of SHP-2 enzyme (Met1-Leu525) (Q06124 1-525): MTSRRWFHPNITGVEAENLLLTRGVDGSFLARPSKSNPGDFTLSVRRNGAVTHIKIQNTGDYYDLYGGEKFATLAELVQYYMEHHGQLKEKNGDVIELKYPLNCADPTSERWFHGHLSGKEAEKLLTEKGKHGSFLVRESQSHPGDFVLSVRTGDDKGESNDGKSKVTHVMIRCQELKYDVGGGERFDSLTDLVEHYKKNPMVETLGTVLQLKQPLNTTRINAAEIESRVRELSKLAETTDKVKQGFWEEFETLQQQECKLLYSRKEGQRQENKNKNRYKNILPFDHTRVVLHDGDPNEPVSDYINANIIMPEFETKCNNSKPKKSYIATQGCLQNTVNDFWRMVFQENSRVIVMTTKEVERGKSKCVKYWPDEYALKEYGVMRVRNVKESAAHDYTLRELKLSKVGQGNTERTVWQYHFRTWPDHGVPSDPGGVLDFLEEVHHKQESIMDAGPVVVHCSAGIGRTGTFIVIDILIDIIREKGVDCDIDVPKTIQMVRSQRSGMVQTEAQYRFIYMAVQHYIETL

| SMILES | IC50 [1, 3] [nM] | IC50 ([2]; Homo sapiens, KYSE-520, 2 h) [nM] | IC50 [2] [nM] | IC50 [1] [nM] | IC50 ([2]; Homo sapiens) [nM] |
| --- | --- | --- | --- | --- | --- |
| NC[C@]1(c2c(F)cccc2F)[C@@H]2CCN(c3cnc4c(-c5cccn6nccc56)n[nH]c4n3)C[C@@H]21 [Example 116, ((1S,6R,7R)-7-(2,6-difluorophenyl)-3-(3-(pyrazolo[1,5-a]pyridin-4-yl)-1H-pyrazolo[3,4-b]pyrazin-6-yl)-3-azabicyclo[4.1.0]heptan-7-yl)methanamine] | < 500 | < 1000 | – | – | – |
| COc1ccc2c(-c3n[nH]c4nc(N5CC[C@@H]6[C@H](C5)[C@@]6(CN)c5ccccc5F)cnc34)ccnc2c1 [Example 191, ((1S,6R,7R)-7-(2-fluorophenyl)-3-(3-(7-methoxyquinolin-4-yl)-1H-pyrazolo[3,4-b]pyrazin-6-yl)-3-azabicyclo[4.1.0]heptan-7-yl)methanamine] | < 500 | < 1000 | – | – | – |
| NC[C@]1(c2ccccc2F)[C@@H]2CCN(c3cnc4c(-c5ccnc(-c6cnco6)c5Cl)n[nH]c4n3)C[C@@H]21 [Example 263, ((1S,6R,7R)-3-(3-(3-chloro-2-(oxazol-5-yl)pyridin-4-yl)-1H-pyrazolo[3,4-b]pyrazin-6-yl)-7-(2-fluorophenyl)-3-azabicyclo[4.1.0]heptan-7-yl)methanamine] | < 500 | < 1000 | – | – | – |
| Cc1cccc([C@@]2(CN)[C@@H]3CN(c4cnc5c(-c6ccc7nn(C)cc7c6Cl)n[nH]c5n4)C[C@@H]32)n1 [Example 496, ((1R,5S,6r)-3-(3-(4-chloro-2-methyl-2H-indazol-5-yl)-1H-pyrazolo[3,4-b]pyrazin-6-yl)-6-(6-methylpyridin-2-yl)-3-azabicyclo[3.1.0]hexan-6-yl)methanamine] | < 500 | < 1000 | – | – | – |
| Cc1cc([C@@]2(CN)[C@@H]3CCN(c4cnc5c(-c6csc7ncccc67)n[nH]c5n4)C[C@@H]32)no1 [Example 113, ((1S,6R,7S)-7-(5-methylisoxazol-3-yl)-3-(3-(thieno[2,3-b]pyridin-3-yl)-1H-pyrazolo[3,4-b]pyrazin-6-yl)-3-azabicyclo[4.1.0]heptan-7-yl)methanamine] | < 500 | < 1000 | – | – | – |
| Cc1csc([C@@]2(CN)[C@@H]3CN(c4cnc5c(-c6ccc7nccnc7c6Cl)n[nH]c5n4)C[C@@H]32)n1 [Example 460] | < 500 | – | < 1000 | – | – |
| NCC1(c2ccsc2)C2CCN(c3cnc4c(-c5ccnc(C(F)(F)F)c5)n[nH]c4n3)CC21 (stereo not shown) [Example 95, (7-(thiophen-3-yl)-3-(3-(2-(trifluoromethyl)pyridin-4-yl)-1H-pyrazolo[3,4-b]pyrazin-6-yl)-3-azabicyclo[4.1.0]heptan-7-yl)methanamine] | < 500 | 1000 to 5000 | – | – | – |
| NC[C@]1(c2ccccc2F)[C@@H]2CCN(c3cnc4c(-c5cccc6c5CCC(=O)N6)n[nH]c4n3)C[C@@H]21 [Example 293, 5-(6-((1S,6R,7R)-7-(aminomethyl)-7-(2-fluorophenyl)-3-azabicyclo[4.1.0]heptan-3-yl)-1H-pyrazolo[3,4-b]pyrazin-3-yl)-3,4-dihydroquinolin-2(1H)-one] | < 500 | < 1000 | – | – | – |
| NC[C@]1(c2ccccc2F)[C@@H]2CCN(c3cnc4c(-c5ccc6nn(C7COC7)cc6c5Cl)n[nH]c4n3)C[C@@H]21 [Example 229, ((1S,6R,7R)-3-(3-(4-chloro-2-(oxetan-3-yl)-2H-indazol-5-yl)-1H-pyrazolo[3,4-b]pyrazin-6-yl)-7-(2-fluorophenyl)-3-azabicyclo[4.1.0]heptan-7-yl)methanamine] | < 500 | < 1000 | – | – | – |
| NC[C@]1(c2ccccc2F)[C@@H]2CCN(c3cnc4c(-c5ccnc6cnccc56)n[nH]c4n3)C[C@@H]21 [Example 155, ((1S,6R,7R)-3-(3-(1,7-naphthyridin-4-yl)-1H-pyrazolo[3,4-b]pyrazin-6-yl)-7-(2-fluorophenyl)-3-azabicyclo[4.1.0]heptan-7-yl)methanamine] | < 500 | < 1000 | – | – | – |
| COc1cnc2ccc(-c3n[nH]c4nc(N5CC[C@@H]6[C@H](C5)[C@@]6(CN)c5ccccc5F)cnc34)cc2n1 [Example 188, ((1S,6R,7R)-7-(2-fluorophenyl)-3-(3-(3-methoxyquinoxalin-6-yl)-1H-pyrazolo[3,4-b]pyrazin-6-yl)-3-azabicyclo[4.1.0]heptan-7-yl)methanamine] | < 500 | < 1000 | – | – | – |
| NCC1(c2ccccc2)C2CCN(c3nc4nc(Sc5ccnc(N)c5Cl)cnc4[nH]3)CC21 (stereo not shown) [Example 69, 4-((2-(7-(aminomethyl)-7-phenyl-3-azabicyclo[4.1.0]heptan-3-yl)-1H-imidazo[4,5-b]pyrazin-5-yl)thio)-3-chloropyridin-2-amine] | – | – | – | < 500 | 1000 to 5000 |
| NC[C@]1(c2ccccc2F)[C@@H]2CCN(c3cnc4c(-c5ccc(OC(F)F)c6ncccc56)n[nH]c4n3)C[C@@H]21 [Example 160, ((1S,6R,7R)-3-(3-(8-(difluoromethoxy)quinolin-5-yl)-1H-pyrazolo[3,4-b]pyrazin-6-yl)-7-(2-fluorophenyl)-3-azabicyclo[4.1.0]heptan-7-yl)methanamine] | < 500 | < 1000 | – | – | – |
| Cc1cc(-c2n[nH]c3nc(N4CC[C@@H]5[C@H](C4)[C@@]5(CN)c4ccccc4F)cnc23)ccc1C(N)=O [Example 246, 4-(6-((1S,6R,7R)-7-(aminomethyl)-7-(2-fluorophenyl)-3-azabicyclo[4.1.0]heptan-3-yl)-1H-pyrazolo[3,4-b]pyrazin-3-yl)-2-methylbenzamide] | < 500 | < 1000 | – | – | – |
| Cc1cc(C2(CN)C3CCN(c4cnc5c(-c6ccnc7ccccc67)n[nH]c5n4)CC32)no1 (stereo not shown) [Example 27, (7-(5-methylisoxazol-3-yl)-3-(3-(quinolin-4-yl)-1H-pyrazolo[3,4-b]pyrazin-6-yl)-3-azabicyclo[4.1.0]heptan-7-yl)methanamine] | < 500 | < 1000 | – | – | – |
| NC[C@]1(c2ccccc2F)[C@@H]2CCN(c3cnc4c(-c5ccc(-c6cc(F)cc(F)c6)cc5Cl)n[nH]c4n3)C[C@@H]21 [Example 323, ((1S,6R,7R)-3-(3-(3-chloro-3′,5′-difluoro-[1,1′-biphenyl]-4-yl)-1H-pyrazolo[3,4-b]pyrazin-6-yl)-7-(2-fluorophenyl)-3-azabicyclo[4.1.0]heptan-7-yl)methanamine] | < 500 | < 1000 | – | – | – |
| NC[C@]1(c2ccccc2F)[C@@H]2CCN(c3cnc4c(-c5ccc(-c6ncco6)cc5Cl)n[nH]c4n3)C[C@@H]21 [Example 264, ((1S,6R,7R)-3-(3-(2-chloro-4-(oxazol-2-yl)phenyl)-1H-pyrazolo[3,4-b]pyrazin-6-yl)-7-(2-fluorophenyl)-3-azabicyclo[4.1.0]heptan-7-yl)methanamine] | < 500 | < 1000 | – | – | – |
| CN(C#N)C(=O)c1ccc(-c2n[nH]c3nc(N4CC[C@@H]5[C@H](C4)[C@@]5(CN)c4ccccc4F)cnc23)c(Cl)c1 [Example 356, 4-(6-((1S,6R,7R)-7-(aminomethyl)-7-(2-fluorophenyl)-3-azabicyclo[4.1.0]heptan-3-yl)-1H-pyrazolo[3,4-b]pyrazin-3-yl)-3-chloro-N-cyano-N-methylbenzamide] | < 500 | > 5000 | – | – | – |
| NC[C@]1(c2ccccc2F)[C@@H]2CCN(c3cnc4c(-c5ccnc(N)c5Cl)n[nH]c4n3)C[C@@H]21 [Example 105, 4-(6-((1S,6R,7R)-7-(aminomethyl)-7-(2-fluorophenyl)-3-azabicyclo[4.1.0]heptan-3-yl)-1H-pyrazolo[3,4-b]pyrazin-3-yl)-3-chloropyridin-2-amine] | < 500 | < 1000 | – | – | – |
| Cc1nc(N)ccc1-c1n[nH]c2nc(N3CC[C@@H]4[C@H](C3)[C@@]4(CN)c3ccccc3F)cnc12 [Example 368, 5-(6-((1S,6R,7R)-7-(aminomethyl)-7-(2-fluorophenyl)-3-azabicyclo[4.1.0]heptan-3-yl)-1H-pyrazolo[3,4-b]pyrazin-3-yl)-6-methylpyridin-2-amine] | < 500 | < 1000 | – | – | – |
| Cn1cc2c(Cl)c(-c3n[nH]c4nc(N5CCC6C(C5)C6(CN)c5ncccc5F)cnc34)ccc2n1 (stereo not shown) [Example 49, (3-(3-(4-chloro-2-methyl-2H-indazol-5-yl)-1H-pyrazolo[3,4-b]pyrazin-6-yl)-7-(3-fluoropyridin-2-yl)-3-azabicyclo[4.1.0]heptan-7-yl)methanamine] | < 500 | < 1000 | – | – | – |
| NC[C@]1(c2ccccc2F)[C@@H]2CCN(c3cnc4c(-c5ccn6nccc6c5Cl)n[nH]c4n3)C[C@@H]21 [Example 438, ((1S,6R,7R)-3-(3-(4-chloropyrazolo[1,5-a]pyridin-5-yl)-1H-pyrazolo[3,4-b]pyrazin-6-yl)-7-(2-fluorophenyl)-3-azabicyclo[4.1.0]heptan-7-yl)methanamine] | < 500 | < 1000 | – | – | – |
| NCC1(c2cccc(F)c2)C2CCN(c3cnc4c(-c5cccc(Cl)c5Cl)n[nH]c4n3)CC21 (stereo not shown) [Example 7, (3-(3-(2,3-dichlorophenyl)-1H-pyrazolo[3,4-b]pyrazin-6-yl)-7-(3-fluorophenyl)-3-azabicyclo[4.1.0]heptan-7-yl)methanamine] | < 500 | < 1000 | – | – | – |
